{
  "source": "patent US20040152786A1",
  "about": "“Preventive or remedy for diseases caused by cerebrovascular disturbances” (priority 2003, published 2004)",
  "key": {"[1]": {"tested_on": "middle-cerebral-artery permanently-occluded rat model", "assay": "Infarct lesion area and volume, middle-cerebral-artery permanently-occluded rat model", "assay_type": "in vivo", "from_the_text": "An influence of the cyclohexenone long-chain fatty alcoholic compound, which had been obtained in Preparation Example 2, on the area and volume of the infarct lesion caused by ischemia was studied using a middle-cerebral-artery permanently-occluded rat model.\nThe middle cerebral artery of an 8-week-old rat was electrically coagulated and occluded by a bipolar coagulator (MICRO-3D [Mizuho Co., Ltd.]). The compound obtained in Preparation Example 2 was intraperitoneally administered in an amount of 0.3 mg/kg, 2 mg/kg and 8 mg/kg rightly after the occlusion of the middle cerebral artery, respectively. After 24 hours, the brain was enucleated and cut into slices of 2 mm thick. Each slice was stained with 1% 2,3,5-triphenyltetrazolium chloride (TTC), followed by the taking of photos. The photograph was analyzed and the area of the infarct lesion was measured. The volume of the infarct lesion was calculated from the below-described equation. […]\na: infarct area (B+4) on the cross-section 4 mm forward from the forehead, b: infarct area (B+2) on the cross-section 2 mm forward from the forehead, c: infarct area (B) on the cross-section of the forehead, d: infarct area (B-2) on the cross-section 2 mm backward from the forehead, and e: infarct area (B-4) on the-cross-section 4 mm backward from the forehead."}, "[2]": {"tested_on": "ischemic re-perfusion rat model", "assay": "Infarct lesion area and volume, ischemic re-perfusion rat model", "assay_type": "in vivo", "description": "An influence of the cyclohexenone long-chain fatty alcoholic compound, which had been prepared in Preparation Example 2, on each of the area and volume of the infarct lesion was studied using an ischemic re-perfusion rat model.\nThe 8-week-old rats were occluded, at the middle brain artery thereof, with a nylon stopper for 2 hours, followed by intraperitoneal administration of the compound of Preparation Example 2 in amounts of 0.5 mg/kg, 2 mg/kg and 8 mg/kg, respectively, rightly before re-perfusion. After removal of the nylon stopper, re-perfusion was conducted. Twenty four hours after occlusion, the brain was enucleated and each of the area and volume of the infarct lesion was measured in a similar manner to Test 2."}, "[3]": {"conditions": "intraperitoneal dose of 2 mg/kg"}, "[4]": {"conditions": "2 hours occlusion, intraperitoneal 0.5, 2 and 8 mg/kg rightly before re-perfusion, 24 hours after occlusion"}},
  "data": [
    {"smiles": "CC1=C(CCCCCCCCCCCCCCCO)C(C)(C)CCC1=O", "note": "[Preparation Example 2, 3-(15-hydroxypentadecyl)-2,4,4-trimethyl-2-cyclohexen-1-one]", "values": [
      {"measurement": "volume of the infarct lesion", "setting": "[1]; intraperitoneal 0.3, 2 and 8 mg/kg rightly after occlusion, after 24 hours, V=a+2(b+c+d)+e", "result": "reduction"},
      {"measurement": "area of the infarct lesion", "setting": "[1]; intraperitoneal 0.3, 2 and 8 mg/kg rightly after occlusion, brain taken after 24 hours, TTC staining", "result": "reduction"},
      {"measurement": "brain protective action", "setting": "[1]; [3]", "result": "marked brain protective action"},
      {"measurement": "area of the infarct lesion", "setting": "[2]; [4]", "result": "reduction"},
      {"measurement": "volume of the infarct lesion", "setting": "[2]; [4]", "result": "reduction"},
      {"measurement": "brain protective action", "setting": "[2]; [3]", "result": "marked brain protective action"}
    ]}
  ]
}
